Substitutions are numbered along the chain they refer to. Like-named read-outs stand apart in the source and are kept apart here.
Assays:
Assay type in all cases: cell-based
[1] = target: T1, wild-type Androgen Receptor (AR-wt) (Homo sapiens, UniProt P10275); assay: LNCaP-AR-wt ANT reporter assay (ARE firefly luciferase, antagonist mode); details: for IC50: antagonist mode, 400 pM R-1881 challenge, −Log10(IC50 [Molar]), read-out: LNCaP-AR-wt ANT pIC50 (converted); for Emax: read-out: LNCaP-AR-wt ANT MAX % Inh
T1 construct: expressed in transfected cells; host or cells: LNCaP (LNCaP AR (cs))
T1 sequence (P10275 1-920): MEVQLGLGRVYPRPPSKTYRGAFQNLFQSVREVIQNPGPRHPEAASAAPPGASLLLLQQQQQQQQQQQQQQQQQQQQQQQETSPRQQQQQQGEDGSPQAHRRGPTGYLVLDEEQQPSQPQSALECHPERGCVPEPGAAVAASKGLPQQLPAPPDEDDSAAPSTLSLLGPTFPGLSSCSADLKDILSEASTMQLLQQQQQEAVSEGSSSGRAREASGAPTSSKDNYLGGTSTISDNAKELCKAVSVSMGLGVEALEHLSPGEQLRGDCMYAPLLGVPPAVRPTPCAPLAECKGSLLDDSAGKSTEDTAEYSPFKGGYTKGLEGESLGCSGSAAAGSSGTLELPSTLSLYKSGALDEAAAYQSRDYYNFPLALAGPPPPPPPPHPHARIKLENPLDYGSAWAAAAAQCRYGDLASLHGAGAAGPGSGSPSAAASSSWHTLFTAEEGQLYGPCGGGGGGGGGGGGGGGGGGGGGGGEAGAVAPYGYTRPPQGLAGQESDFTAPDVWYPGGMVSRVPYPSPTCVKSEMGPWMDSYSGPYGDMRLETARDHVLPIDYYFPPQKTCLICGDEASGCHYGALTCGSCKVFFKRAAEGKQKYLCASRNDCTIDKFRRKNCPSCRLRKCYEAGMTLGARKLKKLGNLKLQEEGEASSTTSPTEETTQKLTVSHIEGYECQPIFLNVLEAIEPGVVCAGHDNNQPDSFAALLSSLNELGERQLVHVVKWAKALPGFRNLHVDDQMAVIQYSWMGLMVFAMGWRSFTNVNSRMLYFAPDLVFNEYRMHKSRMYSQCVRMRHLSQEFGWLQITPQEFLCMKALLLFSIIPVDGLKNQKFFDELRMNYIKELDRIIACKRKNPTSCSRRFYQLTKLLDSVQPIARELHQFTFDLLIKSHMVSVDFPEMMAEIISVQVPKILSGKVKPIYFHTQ
How it was run: (§1)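 Puromycin-selected pooled LNCaP populations expressing AR-wt or AR-F876L are seeded in CSS medium and treated with compound for 20-24 h at 37 °C. For antagonist testing, agonist is added at 400 pM (WT) or 600 pM (F876L). Potency values derive from least-squares fitting of luminescence RLU.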

[2] = target: T1, wild-type Androgen Receptor (AR-wt); assay: LNCaP-AR-wt AG reporter assay (ARE firefly luciferase, agonist mode); details: for Emax: read-out: LNCaP-AR-wt AG MAX % Stim
How it was run: (§2)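 Cells: stable LNCaP pools, AR-wt or AR-F876L, in charcoal-stripped serum. Agonist challenge for antagonist mode was 400 pM (WT) and 600 pM (F876L). Luminescence was measured after 20-24 h incubation.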

[3] = target: T2, F876L mutant Androgen Receptor (AR-F876L) (Homo sapiens, UniProt P10275, F877L); assay: LNCaP-AR-F876L ANT reporter assay (ARE firefly luciferase, antagonist mode); details: for Emax: read-out: LNCaP-AR-F876L ANT MAX % Inh; for IC50: read-out: LNCaP-AR-F876L ANT pIC50 (converted)
T2 construct: expressed in transfected cells; host or cells: LNCaP (LNCaP F876L)
T2 sequence (P10275 1-920 F877L): T1 sequence (P10275 1-920) with F877L
How it was run: as §1

[4] = target: T2, F876L mutant Androgen Receptor (AR-F876L); assay: LNCaP-AR-F876L AG reporter assay (ARE firefly luciferase, agonist mode); details: for Emax: read-out: LNCaP-AR-F876L AG MAX % Stim
How it was run: as §2

[5] = maximum % inhibition of R1881 control response over tested concentration range
[6] = agonist mode, −Log10(EC50 [Molar]), read-out: LNCaP-AR-wt AG pEC50 (converted)
[7] = maximum % stimulation (agonist response) over tested concentration range
[8] = agonist mode, −Log10(EC50 [Molar]), read-out: LNCaP-AR-F876L AG pEC50 (converted)

| IC50 [1] | Emax [1, 5] | EC50 [2, 6] | Emax [2, 7] | Emax [3, 5] | IC50 [3] | EC50 [4, 8] | Emax [4, 7] | Structure (SMILES) | Emax [2] | Emax [4] | Emax [1] | EC50 [2] | Emax [3] | EC50 [4] |
| --- | --- | --- | --- | --- | --- | --- | --- | --- | --- | --- | --- | --- | --- | --- |
| 501 nM | 101% | > 15100 nM | 0.6% | 96.5% | 257 nM | > 15100 nM | 0.5% | CN1CCC(Oc2ccc(N3C(=S)N(c4cnc(C#N)c(C(F)(F)F)c4)C(=O)C34CCC4)c(F)c2)CC1 [Cpd 49, 5-[8-[2-fluoro-4-[(1-methyl-4-piperidyl)oxy]phenyl]-5-oxo-7-thioxo-6,8-diazaspiro[3.4]octan-6-yl]-3-(trifluoromethyl)pyridine-2-carbonitrile] | – | – | – | – | – | – |
| 363 nM | 98% | > 15100 nM | – | 98.2% | 282 nM | > 15100 nM | – | Cc1ccc(-c2ccc(N3C(=S)N(c4cnc(C#N)c(C)c4)C(=O)C34CCC4)cc2)o1 [Cpd 50, 3-methyl-5-[8-[4-(5-methyl-2-furyl)phenyl]-5-oxo-7-thioxo-6,8-diazaspiro[3.4]octan-6-yl]pyridine-2-carbonitrile] | 0.7% | 0.2% | – | – | – | – |
| 741 nM | 101% | > 15100 nM | 0.4% | 102% | 468 nM | > 15100 nM | 0.4% | N#Cc1ncc(N2C(=O)C3(CCC3)N(c3ccc(C(=O)N4CCCC4)c(F)c3)C2=S)cc1C(F)(F)F [Cpd 52, 5-[8-[3-fluoro-4-(pyrrolidine-1-carbonyl)phenyl]-5-oxo-7-thioxo-6,8-diazaspiro[3.4]octan-6-yl]-3-(trifluoromethyl)pyridine-2-carbonitrile] | – | – | – | – | – | – |
| 912 nM | 97% | > 15100 nM | 1% | 96.7% | 646 nM | > 15100 nM | 0.5% | N#Cc1ncc(N2C(=O)C3(CCC3)N(c3ccc(C(=O)NCc4ccc(Cl)cc4)c(F)c3)C2=S)cc1C(F)(F)F [Cpd 53, N-[(4-chlorophenyl)methyl]-4-[6-[6-cyano-5-(trifluoromethyl)-3-pyridyl]-5-oxo-7-thioxo-6,8-diazaspiro[3.4]octan-8-yl]-2-fluoro-benzamide] | – | – | – | – | – | – |
| 380 nM | 101% | > 15100 nM | 0.1% | 98.9% | 219 nM | > 15100 nM | 0.5% | N#Cc1ncc(N2C(=O)C3(CCC3)N(c3ccc(C(=O)NCc4cnccn4)c(F)c3)C2=S)cc1C(F)(F)F [Cpd 54, 4-[6-[6-cyano-5-(trifluoromethyl)-3-pyridyl]-5-oxo-7-thioxo-6,8-diazaspiro[3.4]octan-8-yl]-2-fluoro-N-(pyrazin-2-ylmethyl)benzamide] | – | – | – | – | – | – |
| 851 nM | 99.7% | > 15100 nM | 0.5% | 97.8% | 832 nM | > 15100 nM | 0.4% | N#Cc1ncc(N2C(=O)C3(CCC3)N(c3ccc(OCCc4ncccn4)c(F)c3)C2=S)cc1C(F)(F)F [Cpd 56, 5-[8-[3-fluoro-4-(2-pyrimidin-2-ylethoxy)phenyl]-5-oxo-7-thioxo-6,8-diazaspiro[3.4]octan-6-yl]-3-(trifluoromethyl)pyridine-2-carbonitrile] | – | – | – | – | – | – |
| 245 nM | 102% | > 15100 nM | 0.1% | 98.2% | 204 nM | > 15100 nM | 0.6% | CCCCNC(=O)c1ccc(N2C(=S)N(c3cnc(C#N)c(C(F)(F)F)c3)C(=O)C23CCC3)cc1F [Cpd 58, N-butyl-4-[6-[6-cyano-5-(trifluoromethyl)-3-pyridyl]-5-oxo-7-thioxo-6,8-diazaspiro[3.4]octan-8-yl]-2-fluoro-benzamide] | – | – | – | – | – | – |

| Structure (SMILES) | IC50 [1] | Emax [1, 5] | EC50 [2, 6] | Emax [2, 7] | Emax [3, 5] | IC50 [3] | EC50 [4, 8] | Emax [4, 7] | Emax [2] | Emax [4] | Emax [1] | EC50 [2] | Emax [3] | EC50 [4] |
| --- | --- | --- | --- | --- | --- | --- | --- | --- | --- | --- | --- | --- | --- | --- |
| N#Cc1ncc(N2C(=O)C3(CCC3)N(c3ccc(OC4CCN(CCO)CC4)cc3)C2=S)cc1C(F)(F)F [Cpd 51, 5-[8-[4-[[1-(2-hydroxyethyl)-4-piperidyl]oxy]phenyl]-5-oxo-7-thioxo-6,8-diazaspiro[3.4]octan-6-yl]-3-(trifluoromethyl)pyridine-2-carbonitrile] | 389 nM | – | – | – | – | 200 nM | – | – | 0.8% | 0.2% | 99% | > 15100 nM | 101% | > 15100 nM |
| N#Cc1ncc(N2C(=O)C3(CCC3)N(c3ccc(OCCCN4CCCC4)c(F)c3)C2=S)cc1C(F)(F)F [Cpd 55, 5-[8-[3-fluoro-4-(3-pyrrolidin-1-ylpropoxy)phenyl]-5-oxo-7-thioxo-6,8-diazaspiro[3.4]octan-6-yl]-3-(trifluoromethyl)pyridine-2-carbonitrile] | 813 nM | – | – | – | – | 316 nM | – | – | 0.7% | 0.6% | 101% | > 15100 nM | 100% | > 15100 nM |
| N#Cc1ncc(N2C(=O)C3(CCC3)N(c3ccc(C(=O)NCCCc4ccccc4)c(F)c3)C2=S)cc1C(F)(F)F [Cpd 57, 4-[6-[6-cyano-5-(trifluoromethyl)-3-pyridyl]-5-oxo-7-thioxo-6,8-diazaspiro[3.4]octan-8-yl]-2-fluoro-N-(3-phenylpropyl)benzamide] | 324 nM | – | – | – | – | 479 nM | – | – | 0% | 0.5% | 99% | > 15100 nM | 95.5% | > 15100 nM |
| N#Cc1ncc(N2C(=O)C3(CCC3)N(c3ccc(C(=O)NCc4cccs4)c(F)c3)C2=S)cc1C(F)(F)F [Cpd 59, 4-[6-[6-cyano-5-(trifluoromethyl)-3-pyridyl]-5-oxo-7-thioxo-6,8-diazaspiro[3.4]octan-8-yl]-2-fluoro-N-(2-thienylmethyl)benzamide] | 1290 nM | – | – | – | – | 676 nM | – | – | 1.5% | 0.7% | 102% | > 15100 nM | 100% | > 15100 nM |

— US20180008587A1, “THIOHYDANTOIN ANDROGEN RECEPTOR ANTAGONISTS FOR THE TREATMENT OF CANCER” (Jaressen Pharmaceutica NV, priority 2016, published 2018)
